Data published in patent publication US20100298370A1, “BENZOTHIAZOLYL THIENOPYRIDINE DERIVATIVES AND USES THEREOF” (priority 2006, published 2010).

Legend:
[1] = system: carrageenan-induced paw edema in BALB/c mice; assay: Carrageenan-induced paw edema; assay type: in vivo; conditions: 20 mg/kg i.p., 60 min before carrageenan; 4 hours after induction
Method: FIG. 1 is a graph showing the anti-inflammatory activity of Compounds 1-6 administered to mice intraperitoneally (i.p.) at 20 mg/kg, 1 hour before induction of paw edema (10-12 mice per group). The swelling of paws was measured 4 hours after induction, compared to controls and expressed as difference in paw thickness in mm (y-axis). The results were statistically evaluated by Student's t-test and statistical significance is indicated by one, two or three stars ([…]).
Acute edema was induced in the […] of BALB/c mice (10-12 mice/group) by injecting 0.02 ml of freshly prepared solution of 2% carrageenan (Sigma) under the plantar region of right hind paw (Tones et al., 2000). Carrageenan was injected 60 min after administration of the test compounds. The right paw received 0.02 ml of saline, which served as a control. The paw thickness was measured at 2, 4 and 24 hours after carrageenan challenge using a Mitutoyo engineer's micrometer. The difference between right and left pad was expressed as mean±SEM. Test compounds were injected intraperitoneally (i.p.) (20 mg/kg) in 0.5% Tween 80 in saline and vehicle control group received 0.5% Tween 80 in saline.
Compound 1 reduced paw edema by 33% and the reduction was statistically significant as determined by Student's t-test with […].

[2] = target: T1, VEGF binding to heparin (HS-GAG) (Homo sapiens, UniProt P15692); assay: In vitro VEGF to HS-GAG binding assay (ELISA, heparin-BSA coated plate); conditions: 30 μM
T1 construct: purchased Research and Development Systems
T1 sequence (P15692 27-191 isoform P15692-4): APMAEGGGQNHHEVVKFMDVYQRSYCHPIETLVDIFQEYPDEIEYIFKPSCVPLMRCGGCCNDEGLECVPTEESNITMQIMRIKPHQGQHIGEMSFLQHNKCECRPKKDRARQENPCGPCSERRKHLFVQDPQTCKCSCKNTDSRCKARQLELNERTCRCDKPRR
Text: An in vitro assay was used to assess the ability of test compounds of general formulas I and II to inhibit the interaction of VEGF with HS-GAGs. The assay was designed to for determine the concentration required for 50% inhibition (IC-50) for each specific compound. The test compounds were purchased from Life Chemicals Ltd. (Kiev, Ukraine), and the GAG used was heparin (heparin grade I-A; Sigma) conjugated to bovine serum albumin (Sigma) and diluted 1:200 in phosphate-buffered saline (PBS; pH 7.3). The heparin was added to a 96-well polystyrene ELISA plate (NUNC; 0.1 ml per well) and incubated overnight at 4° C. Following the incubation, the plate was washed thoroughly, by immersion, with de-ionized water and then with PBS (pH 7.3) containing Tween 20 (Sigma, 0.05%). The ELISA plate was then blocked with BSA (ICN, 3%, 200 μl per well) for 1 hour at room temperature. Following blocking, the plate was washed with de-ionized water, and then twice with PBS (pH 7.3) containing Tween 20. Recombinant human VEGF (Research and Development Systems) dissolved in PBS supplemented with BSA (0.1%) was added to the ELISA plate. The test compounds were dissolved in DMSO (MERCK), diluted in PBS and added to the wells at concentrations ranging from 0.01 to 200 μM to obtain a final volume 100 μl per well, and incubated for 60 minutes at room temperature with shaking. Following incubation, the plate was washed with de-ionized water and PBS (pH 7.3) containing Tween 20. Anti-human VEGF (1:2000; Research and Development Systems) diluted in PBS supplemented with BSA (1%) was added to the ELISA plate (100 per well) and incubated for 60 minutes at room temperature with shaking. Following incubation, the plate was washed with de-ionized water and then with PBS (pH 7.3) containing Tween 20. Streptavidin-HRP (1:200; Research and Development Systems Cat. No. DY998) diluted in PBS supplemented with BSA (1%) was added to the ELISA plate (100 per well) and incubated for 20 minutes at room temperature with shaking. The plate was then washed with de-ionized water and twice with PBS (pH 7.3) containing Tween 20. The peroxidase substrate chromogen tetramethyl benzidine (TMB; Dako) was added (100 μl per well) to the ELISA plate and incubated at room temperature. After 15 minutes, ELISA Stop Solution (hydrochloric acid 1N, sulfuric acid 3N) was added (100 μl per well) to stop the peroxidase catalyzed colorimetric reaction. The Optical Density (OD) of the samples was measured at 450 nm using an ELISA plate reader (Dynatech MR5000). Data were analyzed with Graphpad Prism software and IC-50 values were determined.
Percent inhibition at 30 μM concentration is shown and for selected compounds IC-50 was established.

[3] = system: oxazolone-induced ear swelling in BALB/c mice; assay: Delayed-type hypersensitivity (DTH), oxazolone mouse ear-swelling test; assay type: in vivo
Method: FIG. 2 is a graph showing the anti-inflammatory activity of Compounds 1, 2, 4, 5, 6 administered to mice orally at 50 mg/kg in a model of delayed-type hypersensitivity (DTH) (11-13 mice per group). The results for dexamethasone (10 mg/kg i.p.), a steroid positive control, are also shown. The y-axis represents difference in ear thickness in mm compared to control. The results were statistically evaluated by Student's t-test and statistical significance is indicated by one, two or three stars ([…]).
BALB/c mice (Velaz, Prague, Czech Republic; 8 week-old; 10-15 animals per group) were sensitized by topical application of a 2% oxazolone (4-ethoxymethylene-2-phenyl-2-oxazolin-5-one; Sigma, St Louis, Mo.) solution in acetone/olive oil (4:1 vol/vol) to a shaved abdomen area (50 μl) and to each paw (5 μl)(Lange-Asschenfeldt et al., 2002). Topical oxazolone administration induces immunomodulatory activity. Five days after sensitization, right ears were challenged by topical application of 10 μl of a 1% oxazolone solution, whereas left ears were treated with vehicle alone. Test compounds were administered 1 hour prior to challenge. The extent of inflammation was measured 24 hours and 48 hours after challenge, using the mouse ear-swelling test. Animals were numbered (tail marking) and weighed and the thickness of both ears was recorded with a constant-loading dial micrometer (Mitutoyo, Tokyo). The unpaired Student t-test was used for statistical analyses. Test compounds were administered per os at 50 mg/kg as a suspension with 0.5% methylcellulose. The vehicle control group received the same volume of 0.5% methylcellulose.

inhibition at 30 µM [2]: 29%
SMILES: CN1CCc2c(sc(NC(=O)CCN3C(=O)c4ccccc4C3=O)c2-c2nc3ccccc3s2)C1 [Compound 6, N-[3-(2-benzothiazolyl)-4,5,6,7-tetrahydro-6-methylthieno[2,3-c]pyridin-2-yl]-3-(1,3-dihydro-1,3-dioxo-2H-isoindole-2)propanamide]
reduction of paw edema [1]: 19.5%
inhibition of ear swelling (in words) ([3]; DTH, FIG. 2, oral 50 mg/kg): significantly inhibited ear swelling
reduction of ear swelling ([3]; per os 50 mg/kg, 1 hour prior to challenge, after 48 hours): 19.1%
